Experimental findings from the METLIN SMRT retention time set (Domingo-Almenara et al. 2019) are described below.

This series in a line: gradient 5% acetonitrile 3 min, to 50% in 2 min, to 85% in 15 min, held 3 min, 100 µL/min. The note with it: column: Zorbax Extend-C18 2.1 x 50 mm; eluents: water / acetonitrile, 0.1% formic acid. In short, it runs like this: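 Standards, all pure, were combined into mixtures of ~100 molecules and run at 100 μL/min on a Zorbax Extend-C18 column (2.1 × 50 mm, 1.8 μm) with water and acetonitrile, each containing 0.1% formic acid. A coupled quadrupole time-of-flight mass spectrometer operated in positive and negative ionization mode. Retention time values come from computationally picked adduct peaks, each inspected manually.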
`COC(=O)c1ncn2c1C(=O)N(CCCc1ccccc1)C(C)(C(=O)NCc1ccccc1)C2` (centres undefined) returned an RP-LC retention time of 761 s. Then `CCc1ccc(NC(=O)C2CCN(S(=O)(=O)c3ccc4c(c3)sc(=O)n4C(C)C)CC2)cc1`, with 1060 s.

As to `CCOC(=O)c1cnc(N2CCN(Cc3ccc4c(c3)OCO4)CC2)[nH]c1=O`, the RP-LC retention time came to 605 s. Then `O=C(CSc1nnc2c3cc(-c4ccccc4)nn3ccn12)Nc1ccccc1Br`, with 908 s; and `CCc1ccc(S(=O)(=O)N2CCc3nc(-c4ccccc4)ncc3C2)cc1`, with 1160 s; and `CN1C(=O)C2CCCCN2c2ccc(C(=O)N3CCN(Cc4ccc5c(c4)OCO5)CC3)cc21` (centres undefined), with 638 s. As to `O=C(CN1C(=O)CCc2cc(Br)ccc21)N1CCN(c2ccc(F)cc2)CC1`, the RP-LC retention time was found to be 949 s. To `CCC(C)NC(=O)c1nccnc1NC(=O)c1ccccc1` (centres undefined) belongs 899 s; to `Cc1cc(=O)n(CC(=O)Nc2cc(F)ccc2C)c(N2CCCC2)n1`, 635 s; to `O=C(NC1CCCC1)C1CCCN(C(=O)c2cc(-c3ccccn3)n[nH]2)C1` (centres undefined), 616 s. To `O=C(Cn1cccc(-c2nc(-c3ccccc3)no2)c1=O)Nc1ccc(Br)cc1F` belongs 951 s; to `CCOc1ccc(-c2nc(CN3CCN(C(=O)NC4CCCCC4)CC3)c(C)o2)cc1`, 718 s; to `O=C(NC1CCCCCC1)c1ccc(CN2CCN(Cc3ccccc3)C(=O)C2=O)cc1`, 812 s. Then `CCc1cccc(NC(=O)C2(Cc3ccccc3)CCCCC(=O)N2)c1` (centres undefined), with 931 s.

`O=C([C@@H]1C[C@H](F)CN1S(=O)(=O)c1ccc(Br)cc1)N1CCCCC1`: the RP-LC retention time turned out to be 865 s. For the molecule `CCOC(=O)Cn1cc(-c2nc(-c3ccc(Br)cc3)no2)ccc1=O`, the RP-LC retention time was 1050 s. As for `CC1=C(c2ccc(C)cc2)S(=O)(=O)N=C1N1CCCN(C(=O)c2ccc(F)cc2)CC1`, the RP-LC retention time was 859 s. With `CCCC(=O)Nc1cc2c(cc1N1CCC(C(=O)OCC)CC1)n(C)c(=O)c(=O)n2C`, the RP-LC retention time amounted to 804 s. Then `O=C(NCc1ccc(F)cc1Cl)C1CCN(c2cc(Oc3ccccc3)ncn2)CC1`, with 863 s; and `Cn1c(=O)c(C(=O)N2CCCCC2)nc2cccnc21`, with 648 s; and `CCn1ccc2sc(C)c(C(=O)NC(C)c3ccc(F)cc3)c2c1=O` (centres undefined), with 808 s. To `CCc1ccccc1NC(=O)c1cc(CC)n2nccc2n1` belongs 1150 s; to `CC1=C(C(=O)OC(C)C)C(c2cccc(Oc3ccccc3)c2)NC(=O)N1` (centres undefined), 938 s. To `COc1ccc(CNc2nc3ccncc3n(C(C)C)c2=O)cc1OC` belongs 550 s; to `Cc1cc(=O)n(CC(=O)Nc2ccc(Cl)cc2)c(N2CCc3ccccc3C2)n1`, 855 s. As to `COc1ccc(OC)c(S(=O)(=O)N2CC(N3CC(C(=O)N4CCCC4)CC3=O)C2)c1` (centres undefined), the RP-LC retention time turned out to be 666 s. Then `O=C(CCn1nnc2cc(-c3noc(COc4ccccc4)n3)ccc21)N1CCCCCC1`, with 1000 s; and `Cc1nc(-c2ccccc2)nc2c1CC(=O)N2Cc1cccs1`, with 1070 s; and `CCC(C)NC(=O)c1cc(C)n(C)n1` (centres undefined), with 660 s.

The molecule `O=C(Cn1c(CN2CCCCCC2)nc2ccccc21)N1CCOCC1` returned an RP-LC retention time of 596 s. Then `CNC(=O)C1CCCN(c2nc3ncn(CC(=O)Nc4ccccc4C(=O)OC)c(=O)c3s2)C1` (centres undefined), with 649 s; and `Cc1cc(C)cc(NC(=O)CSc2cc(N3CCCCC3)ncn2)c1`, with 990 s. Then `COCCNC(=O)c1cc(-c2ccc(C)c(C)c2)[nH]c1C`, with 772 s; and `COc1cc(C(=O)NC2CCN(c3cc(-c4cccs4)[nH]n3)C2)cc(OC)c1OC` (centres undefined), with 698 s. To `CN(C)C[C@@H]1CN(S(C)(=O)=O)C[C@H]1NC(=O)c1cccn1C` belongs 573 s. `CC(CCc1ccccc1)NC(=O)CN1CCCN(Cc2cccc(Cl)c2)S1(=O)=O` (centres undefined) displayed an RP-LC retention time of 1120 s.

With `Clc1ccc(-c2noc(CN3CCN(c4ccccn4)CC3)n2)cc1`, the RP-LC retention time was 679 s. Then `COc1ccc(-c2csc(Nc3cc(C)ccn3)n2)cc1`, with 783 s. Molecule `COc1ccc(-c2noc(Cc3nnc(-c4ccc(F)cc4)o3)n2)cc1OC` yielded an RP-LC retention time of 889 s. Turning to `CC1(C(=O)NC2CCCCCCC2)CN(S(C)(=O)=O)CC(=O)N1c1ccc(Cl)cc1` (centres undefined), the RP-LC retention time stood at 952 s. With `O=C(Nc1ccc(Br)cc1F)C1CCN(C(=O)c2cc(-c3cccnc3)n[nH]2)CC1`, the RP-LC retention time is 676 s. To `O=C1C(c2ccncc2)N(Cc2ccccc2)C(=O)CN1c1ccccc1` (centres undefined) belongs 684 s. Turning to `CC1=C(c2ccc(C)cc2)S(=O)(=O)N=C1N1CCCN(C(=O)CC(C)(C)C)CC1`, the RP-LC retention time is 888 s.

`COc1ccc2sc(OC3CCN(C(=O)c4cnn(-c5ccccc5)n4)CC3)nc2c1` displayed an RP-LC retention time of 1140 s. Then `O=C(Nc1ccc(CC(=O)N2CCOCC2)cc1)NC(c1ccccc1)c1ccccc1`, with 740 s; and `CC(C)CN(Cc1cccnc1)C1CN(S(=O)(=O)Cc2ccccc2F)C1`, with 734 s; and `CCOc1ccc(NC(=O)Cn2c(N3CCOCC3)nc3cc(C)n(C)c3c2=O)cc1`, with 652 s. In turn, `Cc1noc(C)c1S(=O)(=O)Nc1cccc(-c2nc(-c3cccc(Br)c3)co2)c1` registered an RP-LC retention time of 1230 s. As for `COc1ccc(-c2ccnc3nc(CCc4ccc(OC)c(OC)c4)nn23)c(F)c1`, the RP-LC retention time turned out to be 867 s. Then `CCOCCCNC(=O)N1[C@H]2CC[C@@H]1c1cnc(-c3ccccc3)nc1C2`, with 778 s; and `CCOc1cc(CNC(=O)C2CCCN(C(=O)c3[nH]c(C)cc3C)C2)cc(OCC)c1OCC` (centres undefined), with 876 s; and `COc1nn(C)cc1C(=O)Nc1ccc(-c2cn3ccsc3n2)cc1`, with 575 s. As to `O=C(Cn1c(=O)oc2ccc(C(=O)N3CCCC3)cc21)N1CCC(Cc2ccccc2)CC1`, the RP-LC retention time was found to be 868 s. On to `Cc1cc(C)n(-c2nc(CC(=O)NCc3ccc(F)cc3)cs2)n1`, for which the RP-LC retention time was found to be 854 s.

Turning to `O=C(Cn1nc(Cc2ccncc2)c2ccccc2c1=O)NCCCN1CCc2ccccc2C1`, the RP-LC retention time turned out to be 567 s. Consider `CCOC(=O)c1c(C)oc2nc(C)nc(Nc3cc(C)ccc3OC)c12`, for which the RP-LC retention time stood at 1350 s.

On to `Cc1nn(C)c(C)c1CCN(C)C(=O)C1CCCCC(=O)N1` (centres undefined), for which the RP-LC retention time is 570 s.

In the case of `O=C(NCc1ccc(F)c(Cl)c1)C1CCN(c2ncnc3c2oc2ccccc23)CC1`, the RP-LC retention time is 781 s.

Regarding `CCOc1ccc(-n2c(CN3CCN(C(=O)NC4CCCC4)CC3)nc3cccnc32)cc1`, the RP-LC retention time came to 636 s.
